doi:10.1101/713214v1 (biorxiv, 2019)

Experiments:
Assay type in all cases: biochemical
MtbClpP1P2 = MtbClpP1P2 (Mycobacterium tuberculosis, UniProt P9WPC5); assay: fluorogenic peptidase assay, Z-Gly-Gly-Leu-AMC
EcClpP = EcClpP (Escherichia coli, UniProt P0A6G7); assay: fluorogenic peptidase assay, Suc-LY-AMC
PaClpP1 = PaClpP1 (Pseudomonas aeruginosa, UniProt Q9I2U1); assay: fluorogenic peptidase assay, Suc-LY-AMC
SaClpP = target: T1, SaClpP (Staphylococcus aureus, UniProt Q2G036); assay: fluorogenic peptidase assay, Suc-LY-AMC
T1 sequence (Q2G036 1-195): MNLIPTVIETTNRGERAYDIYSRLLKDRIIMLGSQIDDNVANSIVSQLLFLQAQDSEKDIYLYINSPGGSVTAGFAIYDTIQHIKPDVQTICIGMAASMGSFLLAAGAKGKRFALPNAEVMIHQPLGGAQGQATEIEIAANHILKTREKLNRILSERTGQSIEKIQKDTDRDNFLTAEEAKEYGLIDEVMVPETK

hClpP = hClpP (Homo sapiens, UniProt Q16740); assay: fluorogenic peptidase assay, Suc-LY-AMC
Chain of hClpP (Q16740 58-277): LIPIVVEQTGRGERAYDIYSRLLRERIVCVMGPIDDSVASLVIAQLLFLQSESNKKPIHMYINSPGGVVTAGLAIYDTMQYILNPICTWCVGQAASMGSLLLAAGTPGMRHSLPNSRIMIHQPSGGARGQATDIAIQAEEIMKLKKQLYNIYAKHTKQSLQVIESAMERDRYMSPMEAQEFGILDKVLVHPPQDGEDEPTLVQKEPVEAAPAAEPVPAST

Chain of MtbClpP1P2 (P9WPC5 whole entry, looked up): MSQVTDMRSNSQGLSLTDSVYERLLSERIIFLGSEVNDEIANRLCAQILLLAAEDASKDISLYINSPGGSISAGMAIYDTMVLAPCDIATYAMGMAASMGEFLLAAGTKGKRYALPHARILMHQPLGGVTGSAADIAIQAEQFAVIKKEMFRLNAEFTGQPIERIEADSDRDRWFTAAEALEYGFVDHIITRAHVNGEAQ
Chain of PaClpP1 (Q9I2U1 whole entry): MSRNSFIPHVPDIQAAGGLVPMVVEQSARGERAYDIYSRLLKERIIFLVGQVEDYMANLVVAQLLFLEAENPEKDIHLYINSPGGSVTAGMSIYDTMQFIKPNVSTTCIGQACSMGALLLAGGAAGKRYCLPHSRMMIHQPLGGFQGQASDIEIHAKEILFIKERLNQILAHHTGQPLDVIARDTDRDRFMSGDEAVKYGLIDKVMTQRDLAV
Chain of EcClpP (P0A6G7 15-207): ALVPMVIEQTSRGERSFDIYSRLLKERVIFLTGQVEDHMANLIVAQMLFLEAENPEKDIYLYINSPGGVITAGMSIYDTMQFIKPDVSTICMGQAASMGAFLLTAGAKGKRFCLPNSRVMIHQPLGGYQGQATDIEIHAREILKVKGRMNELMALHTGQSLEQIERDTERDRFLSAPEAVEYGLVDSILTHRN

SMILES | IC50 (MtbClpP1P2) | IC50 (EcClpP) | IC50 (PaClpP1) | IC50 (SaClpP) | IC50 (hClpP)
COc1cc2c(Oc3ccc4[nH]c(C)cc4c3F)ncnc2cc1OCCCN1CCCC1 [cediranib] | 3.4 ± 0.7 µM | > 100 µM | > 100 µM | > 100 µM | 36.6 ± 0.5 µM
Cc1cc2c(F)c(Oc3ncnn4cc(OC[C@@H](C)O)c(C)c34)ccc2[nH]1 [brivanib] | 12.5 µM |  |  |  | 
